Laboratory results as given in PubChem BioAssay (NCI).
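Protocol summary: plate cells (96-well), add compound at 5 concentrations, incubate 48 h, interpolate endpoints linearly. TGI: total growth inhibition.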

Assays:
Assay in all cases: inhibition of tumour cell growth, NCI panel, 48 h
[1] = system: MDA-N
[2] = system: MOLT-4 leukemia
[3] = system: SK-OV-3 ovarian
[4] = system: SF-295 CNS
[5] = system: OVCAR-4 ovarian
[6] = system: RPMI-8226 leukemia
[7] = system: SF-539 CNS
[8] = system: HT29 colon
[9] = system: SN12C renal
[10] = system: HOP-62 NSCLC
[11] = system: PC-3 prostate
[12] = system: EKVX NSCLC
[13] = system: UO-31 renal
[14] = system: RXF 393 renal
[15] = system: IGROV1 ovarian
[16] = system: COLO 205 colon
[17] = system: CAKI-1 renal
[18] = system: HCT-116 colon
[19] = system: NCI-H23 lung
[20] = system: NCI/ADR-RES ovarian
[21] = system: DU-145 prostate
[22] = system: A498 renal
[23] = system: SF-268 CNS
[24] = system: KM12 colon
[25] = system: UACC-257 melanoma
[26] = system: LOX IMVI melanoma
[27] = system: UACC-62 melanoma
[28] = system: A549 NSCLC
[29] = system: ACHN renal
[30] = system: K-562 leukemia
[31] = system: U251 CNS
[32] = system: M14 melanoma
[33] = system: T-47D breast
[34] = system: SK-MEL-5 melanoma
[35] = system: HOP-92 NSCLC
[36] = system: SNB-19 CNS
[37] = system: MCF7 breast
[38] = system: OVCAR-8 ovarian
[39] = system: BT-549 breast
[40] = system: SR leukemia
[41] = system: SNB-75 CNS
[42] = system: HCC-2998 colon
[43] = system: HS 578T breast
[44] = system: SK-MEL-2 melanoma
[45] = system: OVCAR-5 ovarian
[46] = system: NCI-H522 lung
[47] = system: NCI-H460 lung
[48] = system: NCI-H226 lung
[49] = system: MDA-MB-435
[50] = system: SW-620 colon
[51] = system: SK-MEL-28 melanoma
[52] = system: 786-0 renal
[53] = system: CCRF-CEM leukemia
[54] = system: MDA-MB-231 breast
[55] = system: TK-10 renal
[56] = system: HL-60(TB) leukemia
[57] = system: HCT-15 colon
[58] = system: OVCAR-3 ovarian
[59] = system: MALME-3M melanoma
[60] = system: DMS 114 small cell lung
[61] = system: DMS 273 small cell lung
[62] = system: M19-MEL melanoma
[63] = system: KM20L2 colon
[64] = system: HOP-18 NSCLC
[65] = system: DLD-1 colon

CSc1nnc(SCc2nn3c(=O)cc(C)nc3s2)s1
TGI [1]: > 100 µM | TGI [2]: > 100 µM | TGI [3]: > 100 µM | TGI [4]: > 100 µM | TGI [5]: > 100 µM | TGI [6]: > 100 µM | TGI [7]: > 100 µM | TGI [8]: > 100 µM | TGI [9]: > 100 µM | TGI [10]: > 100 µM | TGI [11]: > 100 µM | TGI [12]: > 100 µM | TGI [13]: > 100 µM | TGI [14]: > 100 µM | TGI [15]: > 100 µM | TGI [16]: > 100 µM | TGI [17]: > 100 µM | TGI [18]: > 100 µM | TGI [19]: > 100 µM | TGI [20]: > 100 µM | TGI [21]: > 100 µM | TGI [22]: > 100 µM | TGI [23]: > 100 µM | TGI [24]: > 100 µM | TGI [25]: > 100 µM | TGI [26]: > 100 µM | TGI [27]: > 100 µM | TGI [28]: > 100 µM | TGI [29]: > 100 µM | TGI [30]: > 100 µM | TGI [31]: > 100 µM | TGI [32]: > 100 µM | TGI [33]: > 100 µM | TGI [34]: > 100 µM | TGI [35]: > 100 µM | TGI [36]: > 100 µM | TGI [37]: > 100 µM | TGI [38]: > 100 µM | TGI [39]: > 100 µM | TGI [40]: > 100 µM | TGI [41]: > 100 µM | TGI [42]: > 100 µM | TGI [43]: > 100 µM | TGI [44]: > 100 µM | TGI [45]: > 100 µM | TGI [46]: > 100 µM | TGI [47]: > 100 µM | TGI [48]: > 100 µM | TGI [49]: > 100 µM | TGI [50]: > 100 µM | TGI [51]: > 100 µM | TGI [52]: > 100 µM | TGI [53]: > 100 µM | TGI [54]: > 100 µM | TGI [55]: > 100 µM | TGI [56]: > 100 µM | TGI [57]: > 100 µM | TGI [58]: > 100 µM | TGI [59]: > 100 µM

Oc1cccc2c(Br)ccnc12
TGI [1]: > 50.4 µM | TGI [2]: 6.91 µM | TGI [3]: 66.8 µM | TGI [4]: > 100 µM | TGI [5]: 10.2 µM | TGI [6]: 4.72 µM | TGI [7]: > 49.1 µM | TGI [8]: 19.4 µM | TGI [9]: 21.7 µM | TGI [10]: > 69 µM | TGI [11]: 38.1 µM | TGI [12]: 11.6 µM | TGI [13]: 21.6 µM | TGI [14]: 32.4 µM | TGI [15]: 9.41 µM | TGI [16]: 27.3 µM | TGI [17]: > 100 µM | TGI [18]: 12.2 µM | TGI [19]: 17.1 µM | TGI [20]: 12.7 µM | TGI [21]: 39.5 µM | TGI [22]: 39.1 µM | TGI [23]: 14.2 µM | TGI [24]: 21.1 µM | TGI [25]: 16.1 µM | TGI [26]: 12.7 µM | TGI [27]: 11.1 µM | TGI [28]: > 100 µM | TGI [29]: 27.5 µM | TGI [30]: > 22.5 µM | TGI [31]: 20.4 µM | TGI [32]: 16.3 µM | TGI [33]: > 51.5 µM | TGI [34]: 14.2 µM | TGI [35]: 23 µM | TGI [36]: 64.1 µM | TGI [37]: > 31.6 µM | TGI [38]: > 36.2 µM | TGI [39]: > 45.7 µM | TGI [40]: 4.31 µM | TGI [41]: 66.2 µM | TGI [42]: 31.7 µM | TGI [43]: 50.5 µM | TGI [44]: 27.1 µM | TGI [45]: 20 µM | TGI [46]: 17.1 µM | TGI [47]: 42 µM | TGI [48]: 29.8 µM | TGI [49]: 34.3 µM | TGI [50]: 16.7 µM | TGI [51]: 38.3 µM | TGI [52]: > 100 µM | TGI [53]: 4.1 µM | TGI [54]: 16.3 µM | TGI [55]: > 100 µM | TGI [56]: 0.983 µM | TGI [57]: 24.2 µM | TGI [58]: 7.81 µM | TGI [59]: 21.2 µM

Cc1cc(=O)[nH]c(NNC(C#N)c2ccccc2O)n1 (stereo unspecified)
TGI [2]: > 100 µM | TGI [3]: > 100 µM | TGI [4]: > 100 µM | TGI [60]: 60.9 µM | TGI [5]: > 100 µM | TGI [6]: > 100 µM | TGI [7]: > 100 µM | TGI [8]: > 100 µM | TGI [9]: > 100 µM | TGI [10]: 99.8 µM | TGI [13]: 56.8 µM | TGI [61]: > 100 µM | TGI [14]: > 100 µM | TGI [15]: > 100 µM | TGI [16]: > 100 µM | TGI [17]: 93.6 µM | TGI [18]: > 100 µM | TGI [19]: > 100 µM | TGI [62]: > 100 µM | TGI [23]: > 100 µM | TGI [24]: > 100 µM | TGI [25]: > 100 µM | TGI [26]: > 100 µM | TGI [27]: 70.3 µM | TGI [63]: > 100 µM | TGI [28]: > 100 µM | TGI [29]: 90.8 µM | TGI [30]: > 100 µM | TGI [31]: > 100 µM | TGI [64]: > 100 µM | TGI [34]: 75.9 µM | TGI [35]: > 100 µM | TGI [38]: > 100 µM | TGI [40]: > 100 µM | TGI [41]: > 100 µM | TGI [44]: > 100 µM | TGI [45]: > 100 µM | TGI [46]: > 100 µM | TGI [47]: > 100 µM | TGI [48]: 84.2 µM | TGI [65]: > 100 µM | TGI [50]: > 100 µM | TGI [51]: > 100 µM | TGI [52]: > 100 µM | TGI [53]: > 100 µM | TGI [55]: > 100 µM | TGI [56]: 50.5 µM | TGI [57]: > 100 µM | TGI [58]: > 100 µM | TGI [59]: > 100 µM

COc1ccc(CSC2=C(C#N)C(=O)NC3(CCCCC3)S2)cc1
TGI [1]: 57.5 µM | TGI [2]: > 100 µM | TGI [3]: > 100 µM | TGI [4]: > 100 µM | TGI [5]: > 100 µM | TGI [6]: > 100 µM | TGI [7]: > 100 µM | TGI [8]: > 100 µM | TGI [9]: > 100 µM | TGI [10]: > 100 µM | TGI [11]: > 100 µM | TGI [12]: > 100 µM | TGI [13]: > 100 µM | TGI [14]: > 73.3 µM | TGI [15]: > 100 µM | TGI [16]: > 100 µM | TGI [17]: > 100 µM | TGI [18]: > 100 µM | TGI [19]: > 100 µM | TGI [20]: > 100 µM | TGI [21]: > 100 µM | TGI [22]: > 100 µM | TGI [23]: > 87.4 µM | TGI [25]: > 100 µM | TGI [26]: > 64.8 µM | TGI [27]: > 100 µM | TGI [28]: > 100 µM | TGI [29]: > 100 µM | TGI [30]: > 100 µM | TGI [31]: > 100 µM | TGI [32]: > 100 µM | TGI [33]: 63.2 µM | TGI [34]: > 100 µM | TGI [35]: > 100 µM | TGI [36]: > 100 µM | TGI [37]: > 100 µM | TGI [38]: > 100 µM | TGI [39]: > 100 µM | TGI [40]: > 100 µM | TGI [41]: > 100 µM | TGI [42]: 62.4 µM | TGI [43]: > 75.8 µM | TGI [44]: > 100 µM | TGI [45]: > 100 µM | TGI [46]: 97.2 µM | TGI [47]: > 100 µM | TGI [48]: > 100 µM | TGI [49]: 38.2 µM | TGI [50]: > 100 µM | TGI [51]: > 100 µM | TGI [52]: > 100 µM | TGI [53]: 24.7 µM | TGI [54]: > 100 µM | TGI [55]: > 100 µM | TGI [56]: 19 µM | TGI [57]: > 100 µM | TGI [58]: > 82.1 µM | TGI [59]: > 100 µM
